Measurements published in BindingDB's records for PubMed 34752953 (Zhengzhou University, 2022).

Biological target: Indoleamine 2,3-dioxygenase 1 (Homo sapiens, UniProt P14902)
Assay: Inhibition of IDO1 (unknown origin)

Indoleamine 2,3-dioxygenase 1, sequence (P14902 whole entry): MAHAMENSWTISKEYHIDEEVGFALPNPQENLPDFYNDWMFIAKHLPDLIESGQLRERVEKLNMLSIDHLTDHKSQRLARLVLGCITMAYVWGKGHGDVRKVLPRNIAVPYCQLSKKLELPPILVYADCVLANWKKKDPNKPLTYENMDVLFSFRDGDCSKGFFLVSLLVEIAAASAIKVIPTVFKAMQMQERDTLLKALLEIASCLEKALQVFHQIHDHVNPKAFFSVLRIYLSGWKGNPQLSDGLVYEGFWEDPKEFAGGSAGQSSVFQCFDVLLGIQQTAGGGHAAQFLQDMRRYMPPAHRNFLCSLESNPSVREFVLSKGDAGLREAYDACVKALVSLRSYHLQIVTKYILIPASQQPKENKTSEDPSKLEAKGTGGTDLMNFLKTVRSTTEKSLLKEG

IC50: 0.011 µM
Structure (SMILES): O[C@@H](C[C@H]1c2sccc2-c2cncn21)C1CCC(F)(F)CC1
